Experimental data: ChEMBL document CHEMBL3988442, “University of Dundee, Small-Polar-MMV Screening Library” (2021)
Several values for one entry are separate records, joined by “and”; a condition that tells them apart may be missing. Equal entries are not always repeated.

Legend:
Proteasome subunit beta = target: T1, Proteasome subunit beta (Trypanosoma cruzi, UniProt O96673); experiment: Trypanosoma cruzi proteasome chymotrypsin-like activity (TcProtChymo) assay.; type: functional
T1 sequence (O96673 whole entry): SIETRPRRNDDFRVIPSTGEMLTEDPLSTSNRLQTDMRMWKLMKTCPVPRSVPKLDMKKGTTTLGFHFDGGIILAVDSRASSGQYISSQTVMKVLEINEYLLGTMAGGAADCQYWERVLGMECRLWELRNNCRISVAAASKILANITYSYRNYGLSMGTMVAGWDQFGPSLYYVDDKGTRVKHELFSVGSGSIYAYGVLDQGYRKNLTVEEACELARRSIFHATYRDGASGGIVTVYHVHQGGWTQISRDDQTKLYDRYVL

[1] = Trypanosoma cruzi proteasome luciferase counter-screen; type: functional, N/A
Schistosoma mansoni = experiment: High throughput screening of compounds against Schistosoma mansoni motility; type: functional; set-up: dose or concentration left out as unconfirmed
Plasmodium falciparum = experiment: Plasmodium falciparum sporozoite viability assay; type: functional, organism-based; settings: for IC50: Plasmodium falciparum
[2] = target: T2, Coenzyme A biosynthesis bifunctional protein CoaBC (Mycobacterium tuberculosis (strain ATCC 25618 / H37Rv), UniProt P9WNZ1); experiment: Biomol Green assay for MtCoaBC inhibitor, OD650 read; type: functional
T2 sequence (P9WNZ1 whole entry): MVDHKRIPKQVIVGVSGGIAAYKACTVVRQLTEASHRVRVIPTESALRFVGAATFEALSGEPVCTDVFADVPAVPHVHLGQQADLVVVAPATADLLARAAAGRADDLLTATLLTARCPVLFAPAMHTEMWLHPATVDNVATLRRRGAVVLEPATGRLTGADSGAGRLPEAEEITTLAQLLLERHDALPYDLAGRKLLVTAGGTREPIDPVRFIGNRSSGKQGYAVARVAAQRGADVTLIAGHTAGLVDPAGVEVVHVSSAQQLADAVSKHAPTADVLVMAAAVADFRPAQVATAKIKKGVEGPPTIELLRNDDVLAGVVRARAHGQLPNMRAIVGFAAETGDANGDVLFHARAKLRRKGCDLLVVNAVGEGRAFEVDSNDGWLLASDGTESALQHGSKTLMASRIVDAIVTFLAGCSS

Histidine--tRNA ligase = target: T3, Histidine--tRNA ligase (Leishmania infantum, UniProt A4I591); experiment: Leishmania infantum Histidine tRNA synthetase (LdHisRS); type: functional
T3 sequence (A4I591 whole entry): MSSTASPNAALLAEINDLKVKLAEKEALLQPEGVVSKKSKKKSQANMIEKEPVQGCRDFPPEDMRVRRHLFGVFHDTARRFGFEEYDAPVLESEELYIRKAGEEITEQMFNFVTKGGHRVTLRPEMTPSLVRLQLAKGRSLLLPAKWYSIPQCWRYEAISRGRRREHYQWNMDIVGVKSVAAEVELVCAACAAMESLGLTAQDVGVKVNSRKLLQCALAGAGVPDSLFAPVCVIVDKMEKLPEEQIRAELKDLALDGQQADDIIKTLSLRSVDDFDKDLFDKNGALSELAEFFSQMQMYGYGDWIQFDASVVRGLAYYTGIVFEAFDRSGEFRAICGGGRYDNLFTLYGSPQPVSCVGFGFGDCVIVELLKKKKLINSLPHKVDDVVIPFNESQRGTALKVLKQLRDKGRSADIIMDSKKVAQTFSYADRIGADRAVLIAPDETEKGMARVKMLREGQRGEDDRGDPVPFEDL

[3] = microbe, parasite or virus in culture; settings: Mycobacterium tuberculosis, 96 h, read-out: pIC50 (converted)
[4] = microbe, parasite or virus in culture; settings: Mycobacterium tuberculosis, 72 h, read-out: pIC50 (converted)
[5] = target: T4, Ubiquitin-activating enzyme e1, putative (Leishmania donovani (strain BPK282A1), UniProt E9BSI1); experiment: Leishmania donovani Ubiquitin Activating Enzyme (LdE1); type: functional
T4 sequence (E9BSI1 whole entry): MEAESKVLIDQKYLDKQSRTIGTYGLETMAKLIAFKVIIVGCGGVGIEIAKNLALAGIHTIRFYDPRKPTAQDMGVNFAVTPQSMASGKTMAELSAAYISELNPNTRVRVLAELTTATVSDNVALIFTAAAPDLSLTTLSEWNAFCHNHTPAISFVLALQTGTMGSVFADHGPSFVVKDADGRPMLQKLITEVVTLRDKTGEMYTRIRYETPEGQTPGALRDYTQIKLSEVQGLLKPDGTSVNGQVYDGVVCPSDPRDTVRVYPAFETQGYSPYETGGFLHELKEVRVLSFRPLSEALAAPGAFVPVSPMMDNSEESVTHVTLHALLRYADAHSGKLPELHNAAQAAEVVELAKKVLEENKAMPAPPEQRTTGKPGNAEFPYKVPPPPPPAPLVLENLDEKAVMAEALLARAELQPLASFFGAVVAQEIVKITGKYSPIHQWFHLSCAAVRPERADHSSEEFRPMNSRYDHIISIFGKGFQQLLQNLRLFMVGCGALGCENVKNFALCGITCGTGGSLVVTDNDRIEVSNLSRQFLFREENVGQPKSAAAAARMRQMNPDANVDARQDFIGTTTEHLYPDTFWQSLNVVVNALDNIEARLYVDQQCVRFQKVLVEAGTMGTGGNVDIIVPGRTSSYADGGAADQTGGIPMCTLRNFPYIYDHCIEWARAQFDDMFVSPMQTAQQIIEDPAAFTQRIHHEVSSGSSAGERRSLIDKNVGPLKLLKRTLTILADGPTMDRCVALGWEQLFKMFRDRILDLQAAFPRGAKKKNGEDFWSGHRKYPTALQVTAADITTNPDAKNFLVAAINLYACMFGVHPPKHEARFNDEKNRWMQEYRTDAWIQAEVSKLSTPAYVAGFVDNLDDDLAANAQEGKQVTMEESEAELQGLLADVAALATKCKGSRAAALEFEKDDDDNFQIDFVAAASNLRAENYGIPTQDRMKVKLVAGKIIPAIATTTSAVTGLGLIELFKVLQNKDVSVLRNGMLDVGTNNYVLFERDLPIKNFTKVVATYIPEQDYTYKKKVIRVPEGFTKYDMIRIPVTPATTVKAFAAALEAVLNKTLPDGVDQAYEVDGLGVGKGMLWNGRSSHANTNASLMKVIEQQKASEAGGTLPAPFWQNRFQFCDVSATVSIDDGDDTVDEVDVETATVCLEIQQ

[6] = target: Polyketide synthase Pks13 (Mycobacterium tuberculosis (strain ATCC 25618 / H37Rv), UniProt I6X8D2); experiment: Mycobacterium tuberculosis Polyketide synthase 13 Thioesterase (PKS13); type: functional
ClpP1P2 = ClpP1P2 (Mycobacterium tuberculosis (strain ATCC 25618 / H37Rv), UniProt P9WPC3+P9WPC5); experiment: in vitro assay to detect presence of AMC directly proportional to the activity of ClpP1P2. GHDDI collaboration.; type: functional
Sequence of ClpP1P2 (P9WPC5 whole entry): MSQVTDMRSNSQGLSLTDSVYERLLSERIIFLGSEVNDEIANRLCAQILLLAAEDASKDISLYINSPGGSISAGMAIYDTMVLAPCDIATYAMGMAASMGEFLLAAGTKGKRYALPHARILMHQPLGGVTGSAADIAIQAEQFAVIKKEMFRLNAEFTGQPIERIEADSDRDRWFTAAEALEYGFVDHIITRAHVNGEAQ
Sequence of ClpP1P2 (P9WPC3 whole entry): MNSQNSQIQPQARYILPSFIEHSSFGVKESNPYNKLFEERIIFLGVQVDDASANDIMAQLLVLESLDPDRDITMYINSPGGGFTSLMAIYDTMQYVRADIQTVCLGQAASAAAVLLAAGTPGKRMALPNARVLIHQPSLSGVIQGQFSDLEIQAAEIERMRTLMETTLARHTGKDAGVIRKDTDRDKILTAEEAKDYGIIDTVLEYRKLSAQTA

Sequence of Polyketide synthase Pks13 (I6X8D2 whole entry): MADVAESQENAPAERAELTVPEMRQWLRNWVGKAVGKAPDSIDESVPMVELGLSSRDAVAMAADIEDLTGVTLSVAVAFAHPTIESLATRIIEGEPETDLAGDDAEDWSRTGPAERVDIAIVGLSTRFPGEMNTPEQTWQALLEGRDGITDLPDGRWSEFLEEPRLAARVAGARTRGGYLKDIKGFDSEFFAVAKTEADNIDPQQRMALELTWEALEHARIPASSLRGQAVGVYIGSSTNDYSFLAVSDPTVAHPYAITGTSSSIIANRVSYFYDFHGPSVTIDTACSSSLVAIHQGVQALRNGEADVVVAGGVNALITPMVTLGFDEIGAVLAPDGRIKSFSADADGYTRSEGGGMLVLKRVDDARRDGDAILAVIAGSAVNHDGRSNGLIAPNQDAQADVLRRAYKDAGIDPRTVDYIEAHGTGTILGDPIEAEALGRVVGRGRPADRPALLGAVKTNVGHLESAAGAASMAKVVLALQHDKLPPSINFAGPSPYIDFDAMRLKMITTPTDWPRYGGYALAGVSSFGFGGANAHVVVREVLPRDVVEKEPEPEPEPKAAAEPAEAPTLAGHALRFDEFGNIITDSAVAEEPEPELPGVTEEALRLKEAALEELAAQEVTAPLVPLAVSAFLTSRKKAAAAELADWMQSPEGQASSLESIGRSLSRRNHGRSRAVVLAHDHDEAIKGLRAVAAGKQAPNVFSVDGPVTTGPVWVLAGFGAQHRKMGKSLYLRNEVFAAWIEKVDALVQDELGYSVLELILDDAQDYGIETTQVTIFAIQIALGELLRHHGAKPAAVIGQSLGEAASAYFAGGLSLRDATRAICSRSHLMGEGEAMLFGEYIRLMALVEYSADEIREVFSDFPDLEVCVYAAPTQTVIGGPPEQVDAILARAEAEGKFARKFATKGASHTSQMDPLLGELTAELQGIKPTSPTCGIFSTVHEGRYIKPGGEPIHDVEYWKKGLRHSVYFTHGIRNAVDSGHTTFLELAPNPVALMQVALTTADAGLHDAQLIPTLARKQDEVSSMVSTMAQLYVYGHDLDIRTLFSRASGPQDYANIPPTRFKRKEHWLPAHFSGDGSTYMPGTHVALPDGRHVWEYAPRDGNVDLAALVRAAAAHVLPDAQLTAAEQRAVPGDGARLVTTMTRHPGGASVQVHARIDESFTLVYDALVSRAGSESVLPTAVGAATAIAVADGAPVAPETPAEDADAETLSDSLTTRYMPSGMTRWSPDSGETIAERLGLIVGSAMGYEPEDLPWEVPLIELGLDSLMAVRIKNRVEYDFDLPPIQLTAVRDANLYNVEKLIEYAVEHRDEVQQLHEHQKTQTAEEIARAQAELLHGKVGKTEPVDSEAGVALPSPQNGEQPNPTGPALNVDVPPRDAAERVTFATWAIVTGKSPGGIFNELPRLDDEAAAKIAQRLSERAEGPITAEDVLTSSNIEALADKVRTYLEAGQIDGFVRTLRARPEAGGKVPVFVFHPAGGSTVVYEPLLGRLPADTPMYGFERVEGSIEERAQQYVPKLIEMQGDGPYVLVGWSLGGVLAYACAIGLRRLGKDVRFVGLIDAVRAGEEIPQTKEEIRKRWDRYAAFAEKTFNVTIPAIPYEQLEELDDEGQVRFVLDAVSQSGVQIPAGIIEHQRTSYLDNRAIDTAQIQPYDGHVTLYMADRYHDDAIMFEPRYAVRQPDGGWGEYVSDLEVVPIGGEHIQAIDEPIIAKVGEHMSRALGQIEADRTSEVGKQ

SMILES | IC50 (Proteasome subunit beta) | pIC50 [1] | also measured
COc1cccc(C(=O)NCC(O)c2cccs2)c1 (stereo not drawn) | 16.9 µM and 18.4 µM | 4.037 and < 4 | Percent Effect (Schistosoma mansoni): -12.61%
CC(C)c1n[nH]c(C(=O)Nc2cc[nH]n2)c1Br | 5.88 µM and 6.65 µM | 4.666 and 4.69 | pIC50 (Plasmodium falciparum): 7.564; IC50 (Plasmodium falciparum): 0.0186 µM
O=C(Nc1ccc(F)c(Br)c1)N1CCCC1 | 11.4 µM and 11.2 µM | < 4 | –
CCOc1cc(/C=C/c2ncc(C(=O)O)s2)ccc1O | 15.5 µM and 21.9 µM | 4.099 and 4.094 | –
c1ccc2sc(N3CCOC(Cn4cccn4)C3)nc2c1 (stereo not drawn) | 18 µM and 17.7 µM | 4.135 and 4.203 | –
CCCC(NC(=O)c1cc(C)n(C2CC2)c1C)c1nnn[nH]1 (stereo not drawn) | 55.7 µM and 67.9 µM | < 4 | –
Cc1cc(C(=O)N2CCc3nnc(N)cc3C2)c(C)n1-c1cccnc1 | > 100 µM | < 4 | –
NC(=O)c1nc(COc2ccc3c(c2)OCO3)no1 | 8.85 µM and 10.5 µM | < 4 | –
Cc1ccc(C(=O)Nc2cn[nH]c2)cc1C | 13.3 µM and 12.6 µM | 4.136 and 4.208 | –
CCc1nnc2n1CCN(Cc1csc(-c3ccc(C)o3)n1)C2 | > 100 µM | < 4 | –
Cn1cccc1C(=O)N1CCC2(CC1)CN(c1cncnc1)C(=O)CO2 | > 100 µM | < 4 | –
CN(C)c1cc(CNC(=O)Nc2ccc(F)cc2)ccn1 | 14.4 µM and 16.9 µM | 4.234 and 4.227 | –
O=C(CC1CN(Cc2ccccc2)CCO1)Nc1ccccc1F (stereo not drawn) | 12.6 µM and 13.6 µM | 4.434 and 4.445 | –
COCc1noc(-c2ccc(N3CCCCC3CO)nc2)n1 (stereo not drawn) | 8.74 µM and 8.62 µM | 4.522 and 4.491 | pIC50 (Plasmodium falciparum): 7.545; IC50 (Plasmodium falciparum): 0.0293 µM
Cc1ccc(N(C)C2CCN(C(=O)CCc3ccco3)CC2)nn1 | 12.8 µM and 16.7 µM | < 4 | IC50 [2]: > 30.2 µM; IC50 (Histidine--tRNA ligase): 41.4 µM and 49.7 µM
COc1cccc(-c2noc(C3CCN(Cc4cccs4)C3)n2)c1.Cl (stereo not drawn) | 13.9 µM and 12.6 µM | 4.852 and 4.875 | –
Cc1cnn(CC2CCCN2CC(=O)N(C)Cc2ccc(C)o2)c1 (stereo not drawn) | > 100 µM | < 4 | –
CCc1nc(COc2ccc(OCc3cnn(C)c3)cc2)no1 | 12.3 µM and 13.3 µM | 4.267 and 4.334 | –
Cc1nc(CN2CCCC(N(C)Cc3cscn3)C2)no1 (stereo not drawn) | 34.8 µM and 26.4 µM | < 4 | –
COc1cccc(-c2nc(C)c(C(=O)NC(CO)CCSC)s2)c1 (stereo not drawn) | 27.3 µM and 32.3 µM | 4.212 | –
CC(C)=CCN1C[C@H]2CC[C@@H]1CN(C(=O)c1c[nH]c(=O)c(Cl)c1)C2 | > 100 µM | < 4 | –
Cc1cnn(CC2CN(c3cnc4ccccc4n3)CCO2)c1 (stereo not drawn) | 17.8 µM and 19.4 µM | 4.14 and 4.151 | IC50 [3]: 14.4 µM; IC50 [4]: 16.4 µM

SMILES | IC50 (Proteasome subunit beta) | pIC50 [1] | also measured
Cc1nc(C)c(C(=O)OCCNc2ncccc2C#N)s1 | 7.22 µM and 8.26 µM | 4.56 and 4.563 | IC50 [5]: > 100 µM
Cc1cnn(C2CN(CC(=O)NCc3ccccn3)C2)c1 | 14.9 µM and 19.7 µM | < 4 | IC50 [2]: > 30.2 µM; IC50 (Histidine--tRNA ligase): > 100 µM
CCc1nc(CN2CCCN(C(=O)CCc3ccco3)CC2)cs1 | > 100 µM | < 4 | –
Cc1cc(S(=O)(=O)Nc2cccc(-n3cccc3)c2)sc1C(=O)O | 16.4 µM and 18.9 µM | < 4 | IC50 [2]: > 30.2 µM; IC50 [6]: 2.38 µM and 0.803 µM
CC(C)c1cc2c(O)nc(CSCC(=O)O)nc2s1 | 7.28 µM and 8.24 µM | 4.494 and 4.54 | –
O=C(NCCCN1CCOCC1)c1ccn(-c2ccc3ccccn23)n1.O=C(O)C(F)(F)F | > 100 µM | < 4 | –
O=C(c1ccc(C2CCCO2)s1)N1Cc2ccccc2C1 (stereo not drawn) | 16.1 µM and 11.4 µM | 4.241 and < 4 | –
Cc1nc(CN2CCOC(CNc3cccnn3)C2)oc1C (stereo not drawn) | > 100 µM | < 4 | –
Cc1ccc(-c2cc(C(=O)NC(C)C(=O)N3CCCCC3)on2)cc1 (stereo not drawn) | 26.1 µM and 26.7 µM | 4.246 and 4.264 | –
Cc1ccc(-c2nc(CN3CCC(C(=O)N(C)C)CC3)cs2)o1 | 46.3 µM and 43.1 µM | < 4 | –
Cc1cc(C(=O)N2CCC3(CCCN(CC4CC4)C3=O)C2)c(C)n1C (stereo not drawn) | > 100 µM and 85.7 µM | < 4 | –
CN(C(=O)Cc1ccc(NC(=O)NC2CCC2)cc1)c1ccccc1 | > 100 µM | < 4 | –
Cc1cc(N2CCN(CC(=O)N(C)C)CC2)nc(-c2ccncc2)n1 | > 100 µM | < 4 | IC50 (Histidine--tRNA ligase): > 100 µM
CO[C@@H]1CN(Cc2scnc2C)[C@@H]2CCCO[C@@H]21.O=C(O)C(F)(F)F.O=C(O)C(F)(F)F | 8.6 µM and 10.8 µM | < 4 | IC50 (ClpP1P2): > 100 µM
CC(C1CC1)N(C)C(=O)c1cnc(-c2ccc3c(c2)OCO3)s1 (stereo not drawn) | 13.7 µM and 13.1 µM | 4.375 and 4.324 | Percent Effect (Schistosoma mansoni): 12.48%
Cc1ccc(N2CC[C@H]3O[C@@H](C(=O)NCc4ccco4)CC[C@H]32)nn1.O=C(O)C(F)(F)F | > 100 µM | < 4 | –
CNS(=O)(=O)Cc1ccc(CNc2cncc(-n3cccn3)n2)cc1 | 10.5 µM and 10.6 µM | 4.398 and 4.427 | IC50 (ClpP1P2): > 100 µM
CC(O)CNCc1ccc(OCc2ccc3c(c2)OCCO3)cc1.Cl (stereo not drawn) | 9.3 µM and 9.77 µM | 4.507 and 4.501 | pIC50 (Plasmodium falciparum): 6.937; IC50 (Plasmodium falciparum): 0.0903 µM
CNC(=O)c1cnc(/C=C/c2ccc(OC)c(O)c2)s1 | 17.4 µM and 13.8 µM | 4.132 and < 4 | –
O=C(c1cn(-c2ccccc2Cl)nn1)N1CCCSCC1 | 14.2 µM and 16.4 µM | 4.282 and 4.315 | –
CN1CCCC1c1ccc(C(=O)N2CCc3ccccc3C2)s1 (stereo not drawn) | 10.3 µM and 8.37 µM | 4.715 and 4.643 | pIC50 (Plasmodium falciparum): 6.857; IC50 (Plasmodium falciparum): 0.121 µM
